Earlier results in patent US11780971B2, “Active yarns and textiles for the stabilization and controlled release of active compounds” (priority 2018, dated 2023).
Values joined by “and” are separate entries in the source; they are usually repeats but may differ in a detail not shown here. Identical values can stand only once.

Test system: Staphylococcus aureus strain

- Minimum Inhibitory Concentration (MIC): 625 µg/mL and 662 µg/mL
Compound: C=CCc1ccc(O)c(OC)c1 [eugenol]
